The test system of the test is SK-ES-1 cells. As to the kind of experiment: Ewing's sarcoma-derived cell line growth assay, combination with rapamycin. The test is classed as cell-based. Particulars: Homo sapiens, SK-ES1, 100 nM (each agent), FIG. 8, read-out: proliferation inhibition. The method, then: The typical concentrations used are 30, 10, 3.3, 1.1, 0.37, and 0.12 μg/ml (or 100, 10, 1, 0.1, 0.01, 0.001 nM rapamycin and test antibody for combination studies) and each dilution is performed in triplicate wells. The cells plus antibody are then incubated for 120 hours after which time the relative cell number in each well is determined using the CellTiter-Glo luminescent cell viability assay (Promega). Luminescence (LU=Luminescence Units) is recorded using a XFluor GENios Pro 4 and for data analysis the mean value from triplicate wells is taken and fitted by iterative calculations using a sigmoidal curve analysis program (Graph Pad Prism) with variable Hill slope.

As to `CO[C@H]1C[C@@H]2CC[C@@H](C)[C@@](O)(O2)C(=O)C(=O)N2CCCC[C@H]2C(=O)O[C@H]([C@H](C)C[C@@H]2CC[C@@H](O)[C@H](OC)C2)CC(=O)[C@H](C)/C=C(\C)[C@@H](O)[C@@H](OC)C(=O)[C@H](C)C[C@H](C)/C=C/C=C/C=C/1C` [rapamycin, reference compound], the inhibition at 0.1 µM was about 60%.

Source of the values: patent publication US11299538B2, “Anti-IGF antibodies” (Boehringer Ingelheim International GmbH, priority 2008, dated 2022).
